Test results reported in article PMC9756341 (Journal of the American Chemical Society, 2022).

Columns and labels:
KLK6 [1] = assay: Enzyme kinetics to calculate KM, KLK6; assay type: biochemical, human; conditions: fluorogenic substrate, KLK6 1.5 nM, 2% DMSO, room temperature, 30 min, Michaelis-Menten model, triplicates
Method: Reagents were obtained from VWR, Sigma Aldrich, Sartorius, Fluorochem, AGTC, Novabiochem, TCI, Alfa Aesar, Iris Biotech, Thermofisher and Bachem. […]
(Code 7449-SE) and KLK8 (Code 2025-SE) were obtained from BioTechne. KLK6 was obtained from the group of Aubry Miller (DKFZ) and KLK7 was obtained from the group of Judith Clements (QUT).
The manufacturer’s recommended buffers were used with uPA and tPA but not KLK8. The KLK6 assay buffer was as follows: 50 mM Tris 150 mM NaCl, 1 mM EDTA, 0.05% Tween20, pH 7.5. The KLK7/8 buffer was as follows: 100 mM Na2PO4, 0.01% Tween20, pH 8.5. Fluorescence measurements were measured using an Envision plate reader. Fluorescence data was processed using Graphpad Prism 8. […]
2-chlorotrityl chloride resin. […]
380nm/440nm. The data was analysed using Graphpad Prism 8. The initial slopes of each plot were calculated and presented in a bar chart, which represents the substrate specificity of the KLK. […]
Enzyme kinetics to calculate KM. Purified fluorogenic substrates were measured in triplicates. […]
temperature, fluorescence was read once every 30 s for 30 min from an Envision plate reader at excitation/emission wavelengths of 380nm/440nm. The data was analysed with Graphpad Prism 8, using the Michaelis-Menten model.
Enzyme kinetics to calculate kobs/I. All ABPs and inhibitors were measured in triplicates. […]

KLK6 [2] = assay: Enzyme kinetics to calculate kobs/I, KLK6; assay type: biochemical, human; conditions: KLK6 1.5 nM, fluorogenic substrate 22 5 µM, 50 mM Tris 150 mM NaCl 1 mM EDTA 0.05% Tween20 pH 7.5, room temperature, read every 30 s for 30 min, ex/em 380/440 nm, pseudo first order kinetics, corrected by (1 + [S]/KM), triplicates
KLK8 = molecular target: T1, KLK8 (Homo sapiens, UniProt O60259); assay: Enzyme kinetics to calculate kobs/I, KLK8; assay type: biochemical; conditions: KLK8 1 nM, Boc-VPR-AMC 30 µM, 100 mM Na2PO4 0.01% Tween20 pH 8.5, room temperature, 30 min, pseudo first order kinetics, triplicates
T1 construct: Active recombinant FGFBP1 (Code 1593-FB), HSPG2 (Code 2364-ER), uPA (Code 1310-SE), tPA (Code 7449-SE) and KLK8 (Code 2025-SE) were obtained from BioTechne; purchased BioTechne 2025-SE
T1 sequence (O60259 33-260): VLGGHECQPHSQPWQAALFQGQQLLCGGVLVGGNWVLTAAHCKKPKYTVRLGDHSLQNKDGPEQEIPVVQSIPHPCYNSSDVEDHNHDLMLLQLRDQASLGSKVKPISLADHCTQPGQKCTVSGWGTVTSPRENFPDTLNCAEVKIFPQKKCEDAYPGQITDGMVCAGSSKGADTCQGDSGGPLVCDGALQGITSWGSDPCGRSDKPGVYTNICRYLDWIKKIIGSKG

endogenous active KLK6 = conditions: Capan-2 conditioned media, streptavidin pulldown, KLK6 western blot
Method: Conditioned media was incubated with bABP 17 (10 μM) or DMSO for 2 h, and labeled proteins enriched on magnetic streptavidin-loaded beads, eluted, and analyzed by western blot against a KLK6 antibody.
Cell culture. Cells were cultured in their recommended culture media supplemented with 10% (v/v)
foetal bovine serum at 37 °C and 5% CO2.
Preparation of conditioned media. Cells were grown in standard growth media to 80% confluency in
a T175 flask. The medium was removed, and the cells were washed with serum-free, phenol-red free
RPMI. The cells were incubated with the same RPMI for 2 h. The medium was replaced once again
with serum-free, phenol-red free RPMI and the cells were incubated for 48 h. The condition medium
was collected and filtered through a 0.2 µm syringe filter. The medium was concentrated (25 mL to
0.75 mL) using a 3 kDa Mw cutoff spin filter to a final concentration of around 1 mg/mL. The protein
concentration was measured using a BioRad DCTM protein assay.
Pulldown experiments (western blot). Conditioned media was diluted with PBS to exactly 1 mg/mL.
200 µg of total protein was used per condition. The ABP or DMSO was added at a 1:100 dilution and
the samples were shaken at RT for 1 h. The proteins were precipitated using the MeOH/H2O/CHCl3
method. The pellet was washed twice with MeOH and dried in air for 5 min. The protein was
resuspended in 2% SDS in PBS to a concentration of 10 mg/mL. PBS was added to gradually dilute
the protein back to 1 mg/mL and the samples were centrifuged (17,000 g, 5 min). 5 µg of protein was
set aside as the “before pulldown” samples. Magnetic streptavidin beads were washed three times with
PBS. The rest of the protein was added into the beads and shaken at RT for 2 h. 5 µg of the supernatant
was set aside for analysis, while the rest was discarded. The beads were washed three times with 1%
SDS in PBS. […]
were boiled at 95 °C for 5 min. The proteins were analysed via SDS-PAGE and western blot analysis. […]
10 min, followed by 180 V for 60 min. Gels were then taken for western blot or in-gel fluorescence. […]

BxPC-3 cells = BxPC-3 cells (no active KLK6), 2 μM, 24 h, relative to DMSO
Method: (§1) Next, the effect of KLK6 inhibition on migration and invasion of Capan-2 cells was assessed using a Boyden chamber assay.
(§2) (13 µL per condition). Control conditions included puromycin (100 µg/mL), DMSO only, Sytox green only or DMSO + Sytox green. The final inhibitor concentrations ranged from 2 µM to 125 nM. The cells were placed into an Incucyte with the incubator set at 37 °C and 5% CO2. Phase and green fluorescence were analysed every 4 h for 5 days.
(§3) Invasion/migration assays. Cell invasion was measured using Corning Fluoroblok inserts following a modified procedure11. Fluoroblok inserts were placed into the wells of a 24-well plate. Matrigel was suspended to 300 µg/mL in coating buffer (0.01M Tris, 0.7% NaCl, pH 8). The matrigel suspension (100 µL) was added into the Fluoroblok insert and the plate was left at 37 °C for 2 h. A migration control (with no matrigel) was also included. Cells were trypsinised and resuspended in serum-free DMEM.
(§4) The leftover buffer in the chambers was decanted and 500 µL of cells (100,000 per well) were seeded into the apical chamber of the insert. DMEM with 10% FBS (750 µL) was added into the basal chamber as a chemoattractant. The plate was incubated at 37 °C and 5% CO2 for 24 h. The chambers were removed and placed into a new 24-well plate containing 50 µM of CellTracker CMHC dye in HBSS. The cells were stained for 0.5 h and the chamber was removed and placed into the previous plate containing DMEM with 10% FBS. The cells were imaged for blue fluorescence (ex/em = 375/460) using a Celena S inverted fluorescence microscope. Percentage invasion was calculated by quantifying the cell area

Capan-2 cells [3] = conditions: Capan-2 cells (active KLK6), 2 μM, 24 h, relative to DMSO
Method: as §1, §2, §3, §4

Capan-2 cells [4] = conditions: 0.13 to 2 μM, Incucyte live cell imaging every 4 h for 5 days, serum-free DMEM
Method: Incucyte assays for proliferation and toxicity
Proliferation was quantified using the Incucyte software by measuring percentage confluency. Sytox
green was used as a marker for cell death. Cell death was quantified by measuring total green
fluorescence of each well.
Incucyte (proliferation and toxicity) assays. Capan-2 cells were seeded in a sterile 96 well plate
(10,000 cells per well). The outermost wells were left empty to mitigate edge effects. Cells were grown
in growth media (10% FBS) overnight to adhere. The next day, the media was replaced with serum-free
DMEM (117 µL) containing Sytox green (250 nM) or a DMSO control.

[5] = Fluoroblok insert without Matrigel
[6] = Matrigel-coated Fluoroblok insert

| Substance | KLK6 kobs/I (KLK6 [2]) [M^–1 s^–1] | KLK8 kobs/I (KLK8) [M^–1 s^–1] | other results |
| --- | --- | --- | --- |
| Ac-DPhe-Ser(Z)-Dht-Arg-ACC [compound 23, purified fluorogenic substrate for KLK6] | – | – | Km (KLK6 [1]): 180 µM |
| Yn–Thr(Z)–Ala–Phg–Phg(4-guan)PP [compound 1] | 220 | – | – |
| Yn–Thr(Z)–Ala–Tyr(Z)–Phg(4-guan)PP [compound 6] | 7 | – | – |
| biotin–Ahx–DPhe–Cha–Ser(Ac)–Phg(4-guan)PP [compound 15] | 150 | 20 | – |
| biotin–Ahx–Thr(Z)–Ala–Dht–Phg(4-guan)PP [compound 9] | 220 | – | – |
| Ac-Thr(Z)-Ala-Phg-Arg-ACC [compound 22, purified fluorogenic substrate for KLK6] | – | – | Km (KLK6 [1]): 86 µM |
| biotin–Ahx–DPhe–DLys–Dht–Phg(4-guan)PP [compound 14] | 550 | 73 | – |
| Yn–Asp(Chx)–Cha–His(Z)–Phg(4-guan)PP [compound 4] | 54 | – | – |
| Yn–Thr(Z)–Ala–Ser(Z)–Phg(4-guan)PP [compound 7] | 43 | – | – |
| biotin–Ahx–DPhe–Ser(Z)–Dht–DArgPP [compound 18] | 0 | – | labeling of endogenous KLK6 (endogenous active KLK6): no KLK6 labeling; effect on migration (BxPC-3 cells; [5]): no effect; effect on invasion (BxPC-3 cells; [6]): no effect; effect on migration (Capan-2 cells [3]; [5]): no effect; effect on invasion (Capan-2 cells [3]; [6]): no effect; effect on proliferation (percentage confluency) (Capan-2 cells [4]): no effect |
| biotin–Ahx–DPhe–Lys–Dht–Phg(4-guan)PP [compound 13] | 250 | – | – |
| biotin–Ahx–Thr(Z)–Cha–Dht–Phg(4-guan)PP [compound 10] | 420 | 71 | – |
| Yn–Thr(Z)–Chg–His(Z)–Phg(4-guan)PP [compound 2] | 30 | – | – |
| Yn–Thr(Z)–Cha–His(Z)–Phg(4-guan)PP [compound 3] | 46 | – | – |
| Yn–DPhe–Ser(Z)–Dht–DArgPP [compound 20] | 0 | – | – |
| Yn–Thr(Z)–Ala–Dab(Z)–Phg(4-guan)PP [compound 8] | 11 | – | – |
| biotin–Ahx–DPhe–Cha–Dht–Phg(4-guanPP [compound 11] | 210 | 0 | – |
| biotin–Ahx–DPhe–Cha–Dht–ArgPP [compound 16] | 1300 | 150 | – |
| biotin–Ahx–DhPhe–Cha–Dht–Phg(4-guan)PP [compound 12] | 140 | 0 | – |
| Yn–Thr(Z)–Ala–Dht–Phg(4-guan)PP [compound 5] | 250 | – | – |
